Reference: the NIST ThermoML archive (doi:10.1016/j.jct.2016.10.034)

Assay: xn = mol fraction of the nth substance listed
Conditions: 100 kPa, Liquid; for viscosity: Falling or rolling sphere viscometry; for mass density: Vibrating tube method

CC(=O)[O-].CC[N+]1(C)CCCC1 [1-ethyl-1-methylpyrrolidinium acetate] + O
Conditions	mass density [kg/m3]	viscosity [mPa·s]
298.15 K, x1 = 0.1008	1046.6	6.95
298.15 K, x1 = 0.2083	1066.7	16.9
298.15 K, x1 = 0.3171	1070.7	29
298.15 K, x1 = 0.4126	1070.8	41.1
298.15 K, x1 = 0.481	1070.2	50.9
298.15 K, x1 = 0.5857	1069.2	69.3
298.15 K, x1 = 0.6728	1068.1	88.3
298.15 K, x1 = 0.766	1066.9	116
298.15 K, x1 = 0.8963	1065.4	173
303.15 K, x1 = 0.1008	1043.6	5.96
303.15 K, x1 = 0.2083	1063.6	14.2
303.15 K, x1 = 0.3171	1067.6	24.2
303.15 K, x1 = 0.4126	1067.8	34.5
303.15 K, x1 = 0.481	1067.2	42.8
303.15 K, x1 = 0.5857	1066.3	57.2
303.15 K, x1 = 0.6728	1065.3	71.4
303.15 K, x1 = 0.766	1064	91.3
303.15 K, x1 = 0.8963	1062.5	134
308.15 K, x1 = 0.1008	1040.7	5.32
308.15 K, x1 = 0.2083	1060.3	11.9
308.15 K, x1 = 0.3171	1064.5	19.7
308.15 K, x1 = 0.4126	1064.8	28
308.15 K, x1 = 0.481	1064.2	35.1
308.15 K, x1 = 0.5857	1063.1	46.7
308.15 K, x1 = 0.6728	1062.2	57.6
308.15 K, x1 = 0.766	1060.7	74.2
308.15 K, x1 = 0.8963	1059.4	107
313.15 K, x1 = 0.1008	1037.7	4.77
313.15 K, x1 = 0.2083	1057.1	10.6
313.15 K, x1 = 0.3171	1061.4	16.9
313.15 K, x1 = 0.4126	1061.8	23.5
313.15 K, x1 = 0.481	1061.3	28.9
313.15 K, x1 = 0.5857	1060.4	38.7
313.15 K, x1 = 0.6728	1059.4	48.5
313.15 K, x1 = 0.766	1057.9	62.8
313.15 K, x1 = 0.8963	1056.6	88.5
318.15 K, x1 = 0.1008	1034.6	4.3
318.15 K, x1 = 0.2083	1053.8	9.09
318.15 K, x1 = 0.3171	1058.2	14
318.15 K, x1 = 0.4126	1058.7	19.7
318.15 K, x1 = 0.481	1058.3	23.6
318.15 K, x1 = 0.5857	1057.5	30.3
318.15 K, x1 = 0.6728	1056.6	38.4
318.15 K, x1 = 0.766	1055	51.4
318.15 K, x1 = 0.8963	1053.7	70.8
323.15 K, x1 = 0.1008	1031.5	3.87
323.15 K, x1 = 0.2083	1050.5	7.91
323.15 K, x1 = 0.3171	1055.1	11.6
323.15 K, x1 = 0.4126	1055.7	16
323.15 K, x1 = 0.481	1055.3	19.8
323.15 K, x1 = 0.5857	1054.5	26.2
323.15 K, x1 = 0.6728	1053.6	32.7
323.15 K, x1 = 0.766	1052.2	42.5
323.15 K, x1 = 0.8963	1050.9	58
328.15 K, x1 = 0.1008	1028.3	3.523
328.15 K, x1 = 0.2083	1047.2	6.81
328.15 K, x1 = 0.3171	1051.9	10
328.15 K, x1 = 0.4126	1052.6	13.5
328.15 K, x1 = 0.481	1052.3	15.8
328.15 K, x1 = 0.5857	1051.6	21.2
328.15 K, x1 = 0.6728	1050.7	28
328.15 K, x1 = 0.766	1049.3	35.2
328.15 K, x1 = 0.8963	1048	48
333.15 K, x1 = 0.1008	1025.1	3.21
333.15 K, x1 = 0.2083	1043.8	6.14
333.15 K, x1 = 0.3171	1048.7	8.67
333.15 K, x1 = 0.4126	1049.5	11.5
333.15 K, x1 = 0.481	1049.3	13.5
333.15 K, x1 = 0.5857	1048.5	18.1
333.15 K, x1 = 0.6728	1047.7	23.2
333.15 K, x1 = 0.766	1046.2	29.1
333.15 K, x1 = 0.8963	1045	39.5
338.15 K, x1 = 0.1008	1021.8	2.94
338.15 K, x1 = 0.2083	1040.5	5.49
338.15 K, x1 = 0.3171	1045.5	7.52
338.15 K, x1 = 0.4126	1046.4	9.88
338.15 K, x1 = 0.481	1046.2	11.6
338.15 K, x1 = 0.5857	1045.6	15.4
338.15 K, x1 = 0.6728	1044.9	19.8
338.15 K, x1 = 0.766	1043.5	24.6
338.15 K, x1 = 0.8963	1042.3	32.6
343.15 K, x1 = 0.1008	1018.5	2.65
343.15 K, x1 = 0.2083	1037.1	4.78
343.15 K, x1 = 0.3171	1042.2	6.72
343.15 K, x1 = 0.4126	1043.3	8.58
343.15 K, x1 = 0.481	1043.2	10.1
343.15 K, x1 = 0.5857	1042.6	13.1
343.15 K, x1 = 0.6728	1041.9	16.9
343.15 K, x1 = 0.766	1040.5	20.9
343.15 K, x1 = 0.8963	1039.3	27.2
348.15 K, x1 = 0.1008	1015.2	2.46
348.15 K, x1 = 0.2083	1033.6	4.38
348.15 K, x1 = 0.3171	1039	5.79
348.15 K, x1 = 0.4126	1040.1	7.52
348.15 K, x1 = 0.481	1040.1	8.82
348.15 K, x1 = 0.5857	1039.7	11.4
348.15 K, x1 = 0.6728	1039	14.6
348.15 K, x1 = 0.766	1037.6	17.3
348.15 K, x1 = 0.8963	1036.7	22.4
